Laboratory results as given in patent US20250066290A1, “DHODH INHIBITORS CONTAINING A CARBOXYLIC ACID BIOISOSTERE” (IMMUNIC AG, priority 2021, published 2025).
Like-named read-outs stand apart in the source and are kept apart here.

What was measured:
SARS-CoV-2 = SARS-CoV-2 viral replication (YFP) assay; format: cell-based; conditions: Severe acute respiratory syndrome coronavirus 2, read-out: EC50 range
[1] = target: N-terminally truncated recombinant hDHODH enzyme (Homo sapiens, UniProt Q02127); test: biochemical; format: biochemical
Description: Briefly, the hDHODH concentration was adjusted in a way that an average slope of approximately 0.2 AU/min served as the positive control (e.g. without inhibitor). The standard assay mixture contained 60 μM 2,6-dichloroindophenol, 50 μM decylubiquinone and 100 μM dihydroorotate. The hDHODH enzyme with or without at least six different concentrations of the compounds was added and measurements were performed in 50 mM TrisHCl, 150 mM KCl and 0.1% Triton X-100 at pH 8.0 and at 30° C. The reaction was started by adding dihydroorotate and measuring the absorption at 600 nm for 2 min. For the determination of the IC50 values, each data point was recorded in triplicate. […].

[2] = human DHODH assay, read-out: IC50 range

Sequence of N-terminally truncated recombinant hDHODH enzyme (Q02127 whole entry, looked up, the tested form may be a part): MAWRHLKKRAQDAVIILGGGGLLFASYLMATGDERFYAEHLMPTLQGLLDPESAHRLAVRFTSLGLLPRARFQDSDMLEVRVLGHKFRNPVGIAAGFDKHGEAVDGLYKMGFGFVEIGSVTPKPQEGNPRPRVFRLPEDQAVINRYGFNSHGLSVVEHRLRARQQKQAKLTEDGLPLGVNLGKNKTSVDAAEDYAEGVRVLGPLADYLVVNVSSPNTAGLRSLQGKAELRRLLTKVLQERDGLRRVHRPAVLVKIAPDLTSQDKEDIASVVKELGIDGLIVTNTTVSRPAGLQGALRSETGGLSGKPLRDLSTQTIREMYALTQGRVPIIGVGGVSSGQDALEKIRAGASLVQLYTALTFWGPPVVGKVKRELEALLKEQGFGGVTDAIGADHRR

Row | Compound | EC50 (SARS-CoV-2) [µM] | IC50 [1, 2] [nM] | IC50 [1] [nM] | IC50 ([1]; matched pair comparison, read-out: DHODH IC50) [nM]
1 | [2H]C([2H])([2H])Oc1cccc(-c2cc(F)c(NC(=O)C3=C(C(=O)NS(=O)(=O)C4(C)CC4)CCC3)c(F)c2)c1 [1/2] | 10 to 25 | > 10000 |  | 
2 | [2H]C([2H])([2H])Oc1cccc(-c2cc(F)c(NC(=O)C3=C(C(=O)NS(=O)(=O)C(F)F)CCC3)c(F)c2)c1 [1/3] | 25 to 50 |  | 1000 to 10000 | 
3 | [2H]C([2H])([2H])Oc1cccc(-c2cc(F)c(NC(=O)C3=C(C(=O)NS(C)(=N)=O)CCC3)c(F)c2)c1 (stereo not drawn) [1/4] | > 50 | < 100 |  | 
4 | [2H]C([2H])([2H])C([2H])([2H])Oc1cccc(-c2cc(F)c(NC(=O)C3=C(C(=O)NS(C)(=O)=O)CCC3)c(F)c2)c1 [1/5] | < 10 | < 100 |  | 
5 | [2H]C([2H])([2H])Oc1ccccc1-c1cc(F)c(NC(=O)C2=C(C(=O)NS(C)(=O)=O)CCC2)c(F)c1 [1/6] | 25 to 50 | < 100 |  | 
6 | [2H]c1c([2H])c(-c2cccc(OC([2H])([2H])[2H])c2)c([2H])c(C([2H])([2H])[2H])c1NC(=O)C1=C(C(=O)NS(C)(=O)=O)CCC1 [1/8] |  |  | 1000 to 10000 | 
7 | [2H]C([2H])([2H])Oc1ccccc1-c1c(F)c(F)c(NC(=O)C2=C(C(=O)NS(C)(=O)=O)CCC2)c(F)c1F [1/9] |  | < 100 |  | 
8 | [2H]C([2H])([2H])Oc1cccc(-c2c(F)c(F)c(NC(=O)C3=C(C(=O)NS(C)(=O)=O)COC3)c(F)c2F)c1 [1/10] |  |  | 100 to 1000 | 
9 | [2H]C([2H])([2H])Oc1cccc(-c2ccc(NC(=O)C3=C(C(=O)NS(C)(=O)=O)CCC3)c(F)c2)c1 [1/11] |  |  | 100 to 1000 | 
10 | [2H]C([2H])([2H])Oc1cccc(-c2c(F)c(F)c(NC(=O)C3=C(C(=O)NS(C)(=O)=O)CC(F)(F)C3)c(F)c2F)c1 [1/12] | < 1 | < 100 |  | 
11 | [2H]C([2H])([2H])Oc1cccc(-c2c(F)c(F)c(NC(=O)c3cscc3C(=O)NS(C)(=O)=O)c(F)c2F)c1 [1/14] | > 50 |  |  | 
12 | [2H]C([2H])([2H])Oc1cccc(-c2cc(F)c(NC(=O)C3=C(C(=O)NS(=O)(=O)N(C)C)CCC3)c(F)c2)c1 [2/2] | 10 to 25 | > 10000 |  | 
13 | [2H]C([2H])([2H])Oc1cccc(-c2cc(F)c(NC(=O)C3=C(C(=O)NS(=O)(=O)NC)CCC3)c(F)c2)c1 [2/3] | 10 to 25 |  | 100 to 1000 | 
14 | [2H]C([2H])([2H])Oc1ccccc1-c1c(F)c(F)c(NC(=O)C2=C(C(=O)NS(N)(=O)=O)CCC2)c(F)c1F [2/4] | < 10 | < 100 |  | 
15 | [2H]C([2H])([2H])Oc1cccc(-c2c(F)c(F)c(NC(=O)C3=C(C(=O)NS(N)(=O)=O)CC(F)(F)C3)c(F)c2F)c1 [2/5] | < 1 | < 100 |  | 
16 | [2H]C([2H])([2H])Oc1cccc(-c2c(F)c(F)c(NC(=O)c3cscc3C(=O)NS(N)(=O)=O)c(F)c2F)c1 [2/6] | < 10 | < 100 |  | 
17 | [2H]C([2H])([2H])Oc1cccc(-c2cc(F)c(NC(=O)C3=C(C(=O)NOCCF)CCC3)c(F)c2)c1 [4/2] | < 10 |  | 100 to 1000 | 
18 | [2H]C([2H])([2H])ONC(=O)C1=C(C(=O)Nc2c(F)cc(-c3cccc(OC([2H])([2H])[2H])c3)cc2F)CCC1 [4/4] | < 10 |  |  | 
19 | [2H]C([2H])([2H])Oc1cccc(-c2ccc(NC(=O)C3=C(C(=O)NOC)CCC3)n3ccnc23)c1 [4/8] |  | > 10000 |  | 
20 | [2H]C([2H])([2H])Oc1cccc(-c2cc(F)c(NC(=O)C3=C(C(=O)NOCC)CCC3)c(F)c2)c1 [4/9] | < 10 |  | 1000 to 10000 | 
21 | [2H]C([2H])([2H])Oc1cccc(-c2ccc(NC(=O)C3=C(C(=O)NOC)CCC3)c3cnccc23)c1 [4/11] | 25 to 50 | > 10000 |  | 
22 | [2H]C([2H])([2H])Oc1cccc(-c2ccc(NC(=O)C3=C(C(=O)NOC)CCC3)c3ccccc23)c1 [4/12] | < 10 | > 10000 |  | 
23 | CONC(=O)C1=C(C(=O)Nc2c(F)cc(-c3cccc4c3OCO4)cc2F)CCC1 [4/13] | < 10 |  | 1000 to 10000 | 
24 | CONC(=O)C1=C(C(=O)Nc2c(F)cc(-c3cccc4ocnc34)cc2F)CCC1 [4/14] | < 10 |  | 1000 to 10000 | 
25 | [2H]C([2H])([2H])Oc1cccc(-c2cc(F)c(NC(=O)C3=C(C(=O)NC#N)CCC3)c(F)c2)c1 [4/15] | 10 to 25 |  |  | 
26 | [2H]C([2H])([2H])ONC(=O)C1=C(C(=O)Nc2c(F)c(F)c(-c3cccc(OC([2H])([2H])[2H])c3)c(F)c2F)CCC1 [4/22] | < 1 | < 100 |  | 
27 | [2H]C([2H])([2H])Oc1cccc(-c2c(F)c(F)c(NC(=O)C3=C(C(=O)NOCCO)CCC3)c(F)c2F)c1 [4/23] | < 1 | < 100 |  | 

Row | Compound | EC50 (SARS-CoV-2) [µM] | IC50 [1, 2] [nM] | IC50 [1] [nM] | IC50 ([1]; matched pair comparison, read-out: DHODH IC50) [nM]
28 | [2H]C([2H])([2H])Oc1cccc(C23CCC(NC(=O)C4=C(C(=O)NOC)CCC4)(CC2)CC3)c1 [4/24] |  | > 10000 |  | 
29 | [2H]C([2H])([2H])Oc1cccc(-c2cc(F)c(NC(=O)C3=C(C(=O)NOC)CC(F)(F)C3)c(F)c2)c1 [4/25] | < 1 | < 100 |  | 
30 | [2H]C([2H])([2H])Oc1ccccc1-c1c(F)c(F)c(NC(=O)C2=C(C(=O)NOC)CCC2)c(F)c1F [4/26] | < 1 | < 100 |  | 
31 | [2H]C([2H])([2H])Oc1ccccc1-c1c(F)c(F)c(NC(=O)C2=C(C(=O)NOCCO)CCC2)c(F)c1F [4/27] | < 1 |  | 100 to 1000 | 
32 | [2H]C([2H])([2H])Oc1cccc(-c2c(F)c(F)c(NC(=O)c3cscc3C(=O)NOC)c(F)c2F)c1 [4/28] | < 1 | < 100 |  | 
33 | [2H]C([2H])([2H])Oc1cccc(-c2c(F)c(F)c(NC(=O)C3=C(C(=O)NOCCO)CC(F)(F)C3)c(F)c2F)c1 [4/29] | < 1 | < 100 |  | 
34 | [2H]C([2H])([2H])Oc1cccc(-c2c(F)c(F)c(NC(=O)c3c[nH]cc3C(=O)NOC)c(F)c2F)c1 [4/30] | < 10 |  | 100 to 1000 | 
35 | [2H]C([2H])([2H])ONC(=O)c1cscc1C(=O)Nc1c(F)c(F)c(-c2cccc(OC([2H])([2H])[2H])c2)c(F)c1F [4/31] | < 1 | < 100 |  | 
36 | [2H]C([2H])([2H])ONC(=O)c1cscc1C(=O)Nc1c(F)c(F)c(-c2ccccc2OC([2H])([2H])[2H])c(F)c1F [4/32] | < 1 | < 100 |  | 
37 | [2H]c1c([2H])c(F)c([2H])c(-c2c(F)c(F)c(NC(=O)C3=C(C(=O)NOC([2H])([2H])[2H])COC3)c(F)c2F)c1[2H] [5/2] | < 1 |  | 100 to 1000 | 
38 | [2H]C([2H])([2H])Oc1cccc(-c2c(F)c(F)c(NC(=O)C3=C(C(=O)NOCCO)COC3)c(F)c2F)c1 [5/6] | < 10 |  | 100 to 1000 | 
39 | [2H]C([2H])([2H])Oc1cccc(-c2ccc(NC(=O)C3=C(C(=O)NOCCO)CCC3)c(F)c2)c1 [5/7] |  | > 10000 |  | 
40 | [2H]C([2H])([2H])Oc1cccc(-c2ccc(NC(=O)C3=C(C(=O)NOC)CCC3)c(F)c2)c1 [5/8] |  |  | 1000 to 10000 | 
41 | [2H]C([2H])([2H])ONC(=O)C1=C(C(=O)Nc2c(F)c(F)c(-c3ccccc3OC([2H])([2H])[2H])c(F)c2F)COC1 [5/10] |  | < 100 |  | 
42 | [2H]C([2H])([2H])Oc1ccccc1-c1c(F)c(F)c(NC(=O)C2=C(C(=O)NOC)COC2)c(F)c1F [5/11] |  | < 100 |  | 
43 | [2H]C([2H])([2H])ONC(=O)C1=C(C(=O)Nc2c(F)c(F)c(-c3cccc(OC([2H])(C([2H])([2H])[2H])C([2H])([2H])[2H])c3)c(F)c2F)COC1 [5/15] |  | < 100 |  | 
44 | [2H]C([2H])([2H])ONC(=O)C1=C(C(=O)Nc2c(F)c(F)c(-c3cc(F)cc(OC([2H])([2H])[2H])c3)c(F)c2F)COC1 [5/16] |  | < 100 |  | 
45 | [2H]C([2H])([2H])Oc1cccc(-c2c(F)c(F)c(NC(=O)C3=C(C(=O)NOCCO)CSC3)c(F)c2F)c1 [6/2] | < 10 | < 100 |  | 
46 | [2H]C([2H])([2H])Oc1ccccc1-c1c(F)c(F)c(NC(=O)C2=C(C(=O)NOCCO)CSC2)c(F)c1F [6/3] | < 1 | < 100 |  | 
47 | [2H]C([2H])([2H])Oc1cccc(-c2cc(F)c(NC(=O)C3=C(C(=O)NOC)CCC3)c(OC([2H])([2H])[2H])c2)c1 [8/2] | < 10 |  | 1000 to 10000 | 
48 | [2H]C([2H])([2H])Oc1cccc(-c2c(F)c(F)c(NC(=O)c3cc(F)sc3C(=O)NOC)c(F)c2F)c1 [16/2] |  | < 100 |  | 
49 | [2H]C([2H])([2H])Oc1cccc(-c2c(F)c(F)c(NC(=O)c3sc(F)cc3C(=O)NOC)c(F)c2F)c1 [16/3] |  | < 100 |  | 
50 | CONC(=O)C1=C(C(=O)Nc2ccc(-c3cccc(OC)c3)cc2F)CCC1 [Example 4/33] |  |  | 1000 to 10000 | 2020
51 | [2H]C([2H])([2H])Oc1cccc(-c2cc(F)c(N(CC(=O)OC)C(=O)C3=C(C(=O)NOC)CCC3)c(F)c2)c1 [Example 14, Methyl N-(3,5-difluoro-3′-(methoxy-d3)-[1,1′-biphenyl]-4-yl)-N-(2-(methoxy-carbamoyl)cyclopent-1-ene-1-carbonyl)glycinate] |  |  | 1000 to 10000 | 
52 | [2H]C([2H])([2H])Oc1cccc(-c2cc(F)c(N(CCO)C(=O)C3=C(C(=O)NOC)CCC3)c(F)c2)c1 [Example 15, N1-(3,5-Difluoro-3′-(methoxy-d3)-[1,1′-biphenyl]-4-yl)-N1-(2-hydroxyethyl)-N2-methoxy-cyclopent-1-ene-1,2-dicarboxamide] |  | > 10000 |  | 
53 | [2H]C([2H])([2H])Oc1cccc(-c2c(F)c(F)c(NC(=O)c3ncsc3C(=O)NOC)c(F)c2F)c1 [Example 16-1, N5-methoxy-N4-(2,3,5,6-tetrafluoro-3′-(methoxy-d3)-[1,1′-biphenyl]-4-yl)thiazole-4,5-dicarboxamide] |  | < 100 |  | 
54 | [2H]C([2H])([2H])Oc1cccc(-c2c(F)c(F)c(NC(=O)c3scnc3C(=O)NOC)c(F)c2F)c1 [Example 16-2, N4-methoxy-N5-(2,3,5,6-tetrafluoro-3′-(methoxy-d3)-[1,1′-biphenyl]-4-yl)thiazole-4,5-dicarboxamide] |  |  | 100 to 1000 | 
